According to ChEMBL document CHEMBL3217528, “Bicyclic imidazole-4-one derivatives: a new class of antagonists for the orphan G protein-coupled receptors GPR18 and GPR55” (Medchemcomm, 2014):
pEC50, pIC50, pKi: −log10 of the molar value. The source made the active and inactive calls. No cut-off for these calls is given here.

Key:
[1] = biological target: T1, G-protein coupled receptor 55 (Homo sapiens, UniProt Q9Y2T6); assay: Antagonist activity against human GPR55 expressed in CHO cells assessed as reduction in LPI-induced beta-arrestin recruitment at 10 uM by beta-galactosidase enzyme fragment complementation method; format: cell-based
T1 sequence (Q9Y2T6 whole entry, the tested form may be a part): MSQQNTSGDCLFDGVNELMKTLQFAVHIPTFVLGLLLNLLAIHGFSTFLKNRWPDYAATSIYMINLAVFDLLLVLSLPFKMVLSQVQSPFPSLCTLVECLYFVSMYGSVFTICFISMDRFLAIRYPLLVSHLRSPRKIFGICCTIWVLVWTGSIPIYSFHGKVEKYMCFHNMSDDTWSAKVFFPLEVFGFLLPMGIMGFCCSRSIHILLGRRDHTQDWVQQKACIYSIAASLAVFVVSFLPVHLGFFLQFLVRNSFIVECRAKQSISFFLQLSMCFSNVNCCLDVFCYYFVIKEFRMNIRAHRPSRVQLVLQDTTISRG

[2] = biological target: T1, G-protein coupled receptor 55; assay: Agonist activity at human GPR55 expressed in CHO cells assessed as induction of LPI-induced beta-arrestin recruitment by beta-galactosidase enzyme fragment complementation method relative to LPI; format: cell-based; design: concentration or dose not given beside the values
Cannabinoid receptor 1 [3] = biological target: T2, Cannabinoid receptor 1 (Homo sapiens, UniProt P21554); assay: Displacement of [3H]CP55,940 from human recombinant CB1 receptor expressed in CHO-K1 cells; format: cell-based
T2 sequence (P21554 whole entry, the tested form may be a part): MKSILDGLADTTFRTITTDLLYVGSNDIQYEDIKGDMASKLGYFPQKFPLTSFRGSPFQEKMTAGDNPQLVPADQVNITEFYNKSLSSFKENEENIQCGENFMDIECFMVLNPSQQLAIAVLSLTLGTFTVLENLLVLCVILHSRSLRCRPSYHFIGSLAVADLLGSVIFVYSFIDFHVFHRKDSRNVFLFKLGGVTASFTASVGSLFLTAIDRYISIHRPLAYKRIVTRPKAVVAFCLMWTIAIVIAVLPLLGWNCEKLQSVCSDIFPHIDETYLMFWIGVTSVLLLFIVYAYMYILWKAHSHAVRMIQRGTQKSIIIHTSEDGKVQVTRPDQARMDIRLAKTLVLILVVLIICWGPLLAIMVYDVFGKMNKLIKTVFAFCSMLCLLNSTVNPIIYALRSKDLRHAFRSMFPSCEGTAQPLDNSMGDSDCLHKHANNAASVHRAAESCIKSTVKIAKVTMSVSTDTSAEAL

[4] = biological target: T3, N-arachidonyl glycine receptor (Homo sapiens) (UniProt Q14330); assay: Agonist activity at human GPR18 expressed in CHO cells assessed as induction of beta-arrestin recruitment by beta-galactosidase enzyme fragment complementation method relative to delta9-THC; format: cell-based; design: concentration or dose not given beside the values
T3 sequence (whole entry): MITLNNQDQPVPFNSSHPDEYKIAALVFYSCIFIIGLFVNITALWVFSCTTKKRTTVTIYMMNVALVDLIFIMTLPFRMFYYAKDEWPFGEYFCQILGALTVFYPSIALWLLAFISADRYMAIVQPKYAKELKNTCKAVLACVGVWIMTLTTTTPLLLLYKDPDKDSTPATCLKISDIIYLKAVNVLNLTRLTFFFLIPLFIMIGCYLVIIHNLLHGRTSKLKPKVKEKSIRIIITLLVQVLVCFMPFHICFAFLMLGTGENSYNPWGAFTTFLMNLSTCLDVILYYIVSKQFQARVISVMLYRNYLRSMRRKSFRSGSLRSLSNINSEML

Cannabinoid receptor 2 [5] = biological target: T4, Cannabinoid receptor 2 (Homo sapiens, UniProt P34972); assay: Displacement of [3H]CP55,940 from human recombinant CB2 receptor expressed in HEK293 cells; format: cell-based
T4 sequence (P34972 whole entry): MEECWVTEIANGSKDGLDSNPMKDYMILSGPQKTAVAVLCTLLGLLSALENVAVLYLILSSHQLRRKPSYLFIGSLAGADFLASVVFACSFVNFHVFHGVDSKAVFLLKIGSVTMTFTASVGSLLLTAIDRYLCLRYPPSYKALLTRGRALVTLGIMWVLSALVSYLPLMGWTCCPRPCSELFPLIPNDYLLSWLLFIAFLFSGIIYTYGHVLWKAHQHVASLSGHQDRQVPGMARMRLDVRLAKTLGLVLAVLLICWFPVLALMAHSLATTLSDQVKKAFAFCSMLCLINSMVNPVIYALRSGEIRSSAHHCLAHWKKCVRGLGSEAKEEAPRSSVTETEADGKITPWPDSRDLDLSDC

[6] = biological target: Cannabinoid receptor 1 (Rattus norvegicus) (UniProt P20272); assay: Intrinsic activity at CB1 receptor in rat brain cortical membranes assessed as stimulation of [35S]GTPgammaS binding at 10 uM by liquid scintillation counting method relative to CP55,940; format: functional, cell membranes
Cannabinoid receptor 1 (Rattus norvegicus), sequence (P20272 whole entry): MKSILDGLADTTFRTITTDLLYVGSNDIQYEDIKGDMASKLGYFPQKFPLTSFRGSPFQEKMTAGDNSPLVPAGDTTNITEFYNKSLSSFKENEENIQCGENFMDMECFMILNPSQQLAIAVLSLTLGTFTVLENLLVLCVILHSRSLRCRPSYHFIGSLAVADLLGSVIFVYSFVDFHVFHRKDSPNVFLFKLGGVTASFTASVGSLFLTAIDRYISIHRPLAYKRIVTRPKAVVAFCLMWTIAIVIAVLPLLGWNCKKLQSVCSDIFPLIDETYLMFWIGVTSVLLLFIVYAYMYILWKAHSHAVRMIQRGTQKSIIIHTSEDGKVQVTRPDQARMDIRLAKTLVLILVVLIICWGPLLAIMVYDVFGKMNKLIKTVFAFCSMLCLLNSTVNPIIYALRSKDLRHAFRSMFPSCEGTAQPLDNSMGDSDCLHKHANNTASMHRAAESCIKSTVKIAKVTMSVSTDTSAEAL

Cannabinoid receptor 2 [7] = biological target: T4, Cannabinoid receptor 2; assay: Agonist activity at human recombinant CB2 receptor expressed in CHO-K1 cell membranes assessed effect on forskolin-induced cAMP accumulation at 10 uM; format: functional, cell-based
Cannabinoid receptor 1 [8] = biological target: Cannabinoid receptor 1 (Rattus norvegicus, UniProt P20272); assay: Displacement of [3H]CP55,940 from CB1 receptor in rat brain cortical membranes; format: cell membranes
Cannabinoid receptor 1 (Rattus norvegicus, UniProt P20272), sequence (P20272 whole entry, the tested form may be a part): as the sequence (P20272 whole entry) above

[9] = biological target: T5, N-arachidonyl glycine receptor (Homo sapiens, UniProt Q14330); assay: Antagonist activity against human GPR18 expressed in CHO cells assessed as reduction in delta9-THC-induced beta-arrestin recruitment by beta-galactosidase enzyme fragment complementation method; format: cell-based
T5 sequence (Q14330 whole entry): T3 sequence (whole entry)

Cannabinoid receptor 1 [10] = biological target: T2, Cannabinoid receptor 1; assay: Intrinsic activity at human recombinant CB1 receptor expressed in HEK293 cell membranes assessed as stimulation of [35S]GTPgammaS binding at 10 uM by liquid scintillation counting method relative to CP55,940; format: functional
Cannabinoid receptor 1 [11] = biological target: T2, Cannabinoid receptor 1; assay: Agonist activity at human recombinant CB1 receptor expressed in CHO-K1 cell membranes assessed effect on forskolin-induced cAMP accumulation at 10 uM; format: functional, cell-based
[12] = biological target: T3, N-arachidonyl glycine receptor (Homo sapiens); assay: Antagonist activity against human GPR18 expressed in CHO cells assessed as reduction in delta9-THC-induced beta-arrestin recruitment at 10 uM by beta-galactosidase enzyme fragment complementation method; format: cell-based
[13] = biological target: T1, G-protein coupled receptor 55; assay: Antagonist activity against human GPR55 expressed in CHO cells assessed as reduction in LPI-induced beta-arrestin recruitment by beta-galactosidase enzyme fragment complementation method; format: cell-based
Cannabinoid receptor 2 [14] = biological target: T4, Cannabinoid receptor 2; assay: Displacement of [3H]CP55,940 from human recombinant CB2 receptor expressed in HEK293 cells at 10 uM; format: cell-based
[15] = biological target: T6, G-protein coupled receptor 35 (Homo sapiens, UniProt Q9HC97); assay: Antagonist activity at human GPR35 assessed as reduction of zaprinast-induced beta-arrestin recruitment by beta-galactosidase enzyme fragment complementation method
T6 sequence (Q9HC97 whole entry, the tested form may be a part): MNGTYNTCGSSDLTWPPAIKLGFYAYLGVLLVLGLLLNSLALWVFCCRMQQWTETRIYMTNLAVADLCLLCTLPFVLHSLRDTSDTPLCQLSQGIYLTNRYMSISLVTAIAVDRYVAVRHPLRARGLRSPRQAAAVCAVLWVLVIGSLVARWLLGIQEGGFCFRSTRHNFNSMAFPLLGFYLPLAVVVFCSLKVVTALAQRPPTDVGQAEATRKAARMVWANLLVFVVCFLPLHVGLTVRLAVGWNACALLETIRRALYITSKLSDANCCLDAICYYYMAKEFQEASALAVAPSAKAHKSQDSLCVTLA

[16] = biological target: T6, G-protein coupled receptor 35; assay: Agonist activity at human GPR35 assessed as induction of beta-arrestin recruitment by beta-galactosidase enzyme fragment complementation method
[17] = biological target: T6, G-protein coupled receptor 35; assay: Agonist activity at human GPR35 assessed as induction of beta-arrestin recruitment by beta-galactosidase enzyme fragment complementation method relative to zaprinast; design: concentration or dose not given beside the values
[18] = biological target: T6, G-protein coupled receptor 35; assay: Antagonist activity at human GPR35 assessed as reduction of zaprinast-induced beta-arrestin recruitment by beta-galactosidase enzyme fragment complementation method relative to untreated control; design: concentration or dose not given beside the values; conditions: concentration not given here
Cannabinoid receptor 1 [19] = biological target: T2, Cannabinoid receptor 1; assay: Displacement of [3H]CP55,940 from human recombinant CB1 receptor expressed in CHO-K1 cells at 10 uM; format: cell-based
[20] = Displacement of [3H]diazepam from GABAA receptor in rat brain cortical membranes; format: cell membranes
[21] = biological target: Cannabinoid receptor 1 (Rattus norvegicus) (UniProt P20272); assay: Displacement of [3H]CP55,940 from CB1 receptor in rat brain cortical membranes at 10 uM; format: cell membranes

O=C1/C(=C/c2cccc(OCc3ccc(F)cc3)c2)N=C2SCCCCN12
inhibition [1]: 12% | Activity [2]: 19% | pKi (Cannabinoid receptor 1 [3]): 6.07 | Activity [4]: 0% | pKi (Cannabinoid receptor 2 [5]): 5.81 | Intrinsic activity [6]: -16% | Activity (Cannabinoid receptor 2 [7]): inactive | pKi (Cannabinoid receptor 1 [8]): 6.14 | pIC50 [9]: < 5.00 | Intrinsic activity (Cannabinoid receptor 1 [10]): -16% | Activity (Cannabinoid receptor 1 [11]): inactive | inhibition [12]: 5% | pIC50 [13]: < 5.00

O=C1/C(=C/c2cccc(OCc3cccc(Cl)c3)c2)N=C2SCCCCN12
inhibition (Cannabinoid receptor 2 [14]): 37% | inhibition [1]: 27% | Activity [2]: 52% | pIC50 [15]: < 5.00 | pKi (Cannabinoid receptor 1 [3]): 5.67 | pEC50 [16]: < 5.00 | Activity [4]: 0% | pKi (Cannabinoid receptor 2 [5]): < 5.00 | Intrinsic activity [6]: -12% | pKi (Cannabinoid receptor 1 [8]): 5.61 | Activity [17]: -3% | pIC50 [9]: < 5.00 | Intrinsic activity (Cannabinoid receptor 1 [10]): -14% | inhibition [12]: 15% | pIC50 [13]: < 5.00 | inhibition [18]: 25%

O=C(Oc1cccc(/C=C2\N=C3SCCCN3C2=O)c1)c1ccccc1
inhibition (Cannabinoid receptor 2 [14]): 47% | inhibition [1]: 7% | Activity [2]: 49% | pKi (Cannabinoid receptor 1 [3]): < 5.00 | Activity [4]: 0% | inhibition (Cannabinoid receptor 1 [19]): 2% | pKi (Cannabinoid receptor 2 [5]): ≤ 5.00 | pKi [20]: < 5.00 | pKi (Cannabinoid receptor 1 [8]): < 5.00 | pIC50 [9]: 5.20 | inhibition [21]: 13% | pIC50 [13]: < 5.00

O=C1/C(=C/c2ccccc2)N=C2SCCCN12
inhibition (Cannabinoid receptor 2 [14]): 18% | inhibition [1]: 25% | Activity [2]: 32% | pIC50 [15]: < 5.00 | pKi (Cannabinoid receptor 1 [3]): < 5.00 | pEC50 [16]: < 5.00 | Activity [4]: 7% | inhibition (Cannabinoid receptor 1 [19]): 40% | pKi (Cannabinoid receptor 2 [5]): < 5.00 | pKi (Cannabinoid receptor 1 [8]): < 5.00 | Activity [17]: -5% | pIC50 [9]: < 5.00 | inhibition [21]: 1% | inhibition [12]: 5% | pIC50 [13]: < 5.00 | inhibition [18]: 12%

O=C1/C(=C/c2cccc(OCc3ccccc3)c2)N=C2SCCCN12
inhibition [1]: 0% | Activity [2]: 37% | pKi (Cannabinoid receptor 1 [3]): < 5.00 | Activity [4]: 0% | inhibition (Cannabinoid receptor 1 [19]): 25% | pKi (Cannabinoid receptor 2 [5]): 5.95 | Intrinsic activity [6]: -9% | Activity (Cannabinoid receptor 2 [7]): inactive | pKi (Cannabinoid receptor 1 [8]): 5.37 | pIC50 [9]: 5.14 | Intrinsic activity (Cannabinoid receptor 1 [10]): -33% | pIC50 [13]: < 5.00

O=C1/C(=C/c2cccc(OCc3ccc(Cl)cc3Cl)c2)N=C2SCCCCN12
inhibition [1]: 33% | Activity [2]: 16% | pKi (Cannabinoid receptor 1 [3]): 5.50 | Activity [4]: 0% | pKi (Cannabinoid receptor 2 [5]): 5.78 | Intrinsic activity [6]: -21% | pKi [20]: < 5.00 | Activity (Cannabinoid receptor 2 [7]): inactive | pKi (Cannabinoid receptor 1 [8]): 5.60 | pIC50 [9]: 5.34 | Intrinsic activity (Cannabinoid receptor 1 [10]): -44% | pIC50 [13]: < 5.00

O=C1N2CCCCSC2=NC1(c1ccccc1)c1ccccc1
inhibition (Cannabinoid receptor 2 [14]): 14% | inhibition [1]: 6% | Activity [2]: 54% | pKi (Cannabinoid receptor 1 [3]): 5.87 | Activity [4]: 15% | pKi (Cannabinoid receptor 2 [5]): < 5.00 | Intrinsic activity [6]: -15% | pKi (Cannabinoid receptor 1 [8]): 5.40 | pIC50 [9]: < 5.00 | Intrinsic activity (Cannabinoid receptor 1 [10]): -16% | Activity (Cannabinoid receptor 1 [11]): inactive | inhibition [12]: 0% | pIC50 [13]: < 5.00

O=C1/C(=C/c2cccc(OCc3ccccc3)c2)N=C2SCCCCN12
inhibition [1]: 21% | Activity [2]: 4% | pKi (Cannabinoid receptor 1 [3]): 5.67 | Activity [4]: 7% | pKi (Cannabinoid receptor 2 [5]): 5.74 | Intrinsic activity [6]: -26% | Activity (Cannabinoid receptor 2 [7]): inactive | pKi (Cannabinoid receptor 1 [8]): 5.70 | pIC50 [9]: 5.00 | Intrinsic activity (Cannabinoid receptor 1 [10]): -35% | inhibition [12]: 49% | pIC50 [13]: < 5.00

O=C1/C(=C/c2cccc(OCc3ccccc3Cl)c2)N=C2SCCCCN12
inhibition [1]: 43% | Activity [2]: 7% | pKi (Cannabinoid receptor 1 [3]): 5.64 | Activity [4]: 0% | pKi (Cannabinoid receptor 2 [5]): 6.01 | Activity (Cannabinoid receptor 2 [7]): inactive | pKi (Cannabinoid receptor 1 [8]): < 5.00 | pIC50 [9]: 5.19 | inhibition [21]: 37% | pIC50 [13]: ≤ 5.00

O=C1/C(=C/c2cccc(OCc3ccc(Cl)cc3)c2)N=C2SCCCN12
inhibition [1]: 0% | Activity [2]: 21% | pIC50 [15]: < 5.00 | pKi (Cannabinoid receptor 1 [3]): < 5.00 | pEC50 [16]: < 5.00 | Activity [4]: 0% | inhibition (Cannabinoid receptor 1 [19]): 0% | pKi (Cannabinoid receptor 2 [5]): 5.39 | Intrinsic activity [6]: -7% | pKi [20]: < 5.00 | pKi (Cannabinoid receptor 1 [8]): 5.08 | Activity [17]: -1% | pIC50 [9]: 6.55 | Intrinsic activity (Cannabinoid receptor 1 [10]): -16% | pIC50 [13]: < 5.00 | inhibition [18]: 3%

O=C1/C(=C/c2cccc(OCc3ccc(Cl)cc3Cl)c2)N=C2SCCCN12
inhibition [1]: 0% | Activity [2]: 12% | pKi (Cannabinoid receptor 1 [3]): 5.68 | Activity [4]: 0% | pKi (Cannabinoid receptor 2 [5]): 6.02 | Intrinsic activity [6]: -10% | pKi [20]: < 5.00 | Activity (Cannabinoid receptor 2 [7]): inactive | pKi (Cannabinoid receptor 1 [8]): 6.26 | pIC50 [9]: 5.59 | Intrinsic activity (Cannabinoid receptor 1 [10]): -51% | Activity (Cannabinoid receptor 1 [11]): inactive | pIC50 [13]: < 5.00

O=C1N2CCCSC2=NC1(c1ccccc1)c1ccccc1
inhibition (Cannabinoid receptor 2 [14]): 5% | inhibition [1]: 23% | Activity [2]: 19% | pKi (Cannabinoid receptor 1 [3]): < 5.00 | Activity [4]: 14% | inhibition (Cannabinoid receptor 1 [19]): 25% | pKi (Cannabinoid receptor 2 [5]): < 5.00 | Intrinsic activity [6]: -21% | pKi (Cannabinoid receptor 1 [8]): 5.11 | pIC50 [9]: < 5.00 | Intrinsic activity (Cannabinoid receptor 1 [10]): -31% | inhibition [12]: 0% | pIC50 [13]: < 5.00

COc1ccc(/C=C2\N=C3SCCCN3C2=O)c(OC)c1
Activity [2]: 0% | pIC50 [15]: < 5.00 | pKi (Cannabinoid receptor 1 [3]): ≤ 5.00 | pEC50 [16]: < 5.00 | Activity [4]: 0% | inhibition (Cannabinoid receptor 1 [19]): 42% | pKi (Cannabinoid receptor 2 [5]): 5.59 | pKi (Cannabinoid receptor 1 [8]): < 5.00 | Activity [17]: -7% | pIC50 [9]: < 5.00 | inhibition [21]: 12% | inhibition [12]: 7% | pIC50 [13]: 5.01 | inhibition [18]: 20%
